Assay results as given in patent US8389544B2, “Isoquinolone compounds as subtype-selective agonists for melatonin receptors MT1 and MT2” (The Hong Kong University of Science and Technology, priority 2007, dated 2013).
Like-named read-outs stand apart in the source and are kept apart here.

Assays:
[1] = test system: Parental 293; test: MTT cytotoxicity assay, parental 293 cells; assay type: cell-based; conditions: percentage of untreated control cells
Description: This assay evaluates the cytotoxic effects of the novel isoquinolone compounds based on the cellular viability under chronic treatments. Viable cells but not dead cells can turn the substrate into a colored product, which yields higher absorbance. […] A low percentage indicates low cytoviability (or high cytotoxicity).
5. Cytotoxicity Test Using MTT Assay
Cells were seeded into clear 96-well plate at an appropriate density in 100 μl growth medium and were allowed to grow overnight. The novel isoquinolone compounds were diluted to desired concentrations using fresh growth medium, and these dilutions were used to replace the growth media in each well. After incubating for 24-96 h, 10 μl of the MTT labeling reagent (Roche) was added to each well and the cells were incubated in a CO2 incubator for 4 h. 100 μl solubilization buffer was then added into each well and incubated overnight for complete solubilization of the purple formazan crystals. […] Each condition was performed in triplicate in every experiment and the results were expressed as % of blank control±SD.

[2] = molecular target: MT1 receptor (Homo sapiens, UniProt P48039); test: Competitive [3H]melatonin binding assay, MT1; set-up: expressed in transfected cells; conditions: displacement of 1 nM [3H]melatonin, HEK-293 cells; log value, negative; NSB = No significant binding
Sequence of MT1 receptor (P48039 whole entry): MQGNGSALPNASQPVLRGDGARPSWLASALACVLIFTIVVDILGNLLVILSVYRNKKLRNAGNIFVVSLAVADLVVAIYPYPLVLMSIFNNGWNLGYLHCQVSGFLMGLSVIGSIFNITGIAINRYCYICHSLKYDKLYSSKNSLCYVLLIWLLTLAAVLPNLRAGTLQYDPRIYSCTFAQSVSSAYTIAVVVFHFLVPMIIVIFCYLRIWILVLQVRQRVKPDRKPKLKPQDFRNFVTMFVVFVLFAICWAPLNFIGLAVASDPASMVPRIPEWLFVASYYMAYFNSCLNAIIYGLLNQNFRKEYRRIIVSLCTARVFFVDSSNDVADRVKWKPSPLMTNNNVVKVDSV
Description: (§1) Competitive ligand binding assays were performed to examine the receptor binding characteristics of the novel isoquinolone compounds. The assay measures the ability of the novel isoquinolone compounds to bind and displace the radiolabelled endogenous ligand, [^3H]melatonin. Increasing concentrations of the novel compounds are added to displace the [^3H]melatonin-bound to MT1 or MT2 receptor-expressing cells.
(§2) 4. Competitive Binding Assay
(§3) The ability of compounds to bind to MT1 and/or MT2 receptors is determined using radioligand binding assays. […] 48 hours following transfection, cells are harvested in binding buffer (50 mM Tris-HCl, 2 mM MgCl2, 1 mM EDTA, pH 7.4). 100,000 cells are incubated with 1 nM [^3H] melatonin (specific activity: 83 Ci/mmol; GE Healthcare) and appropriate concentrations (0.1 nM to 1 μM) of unlabelled ligands in a total volume of 100 μl in 96-well plates (PerkinElmer Life And Analytical Sciences, Inc., Boston, Mass.) for 2 hours at room temperature. Reactions are terminated by rapid filtration through a 96-well cell harvester onto 96-well GF/C filter mats. Filters are washed with 500 μl of ice-cold binding buffer, dried and sealed in a polyethylene bag with 3.5 ml of scintillation fluid and counted for tritium in a Microbeta Jet scintillation counter. […] Data are analyzed by nonlinear least-squares regression using GraphPad Prism 3.02.

[3] = molecular target: T1, MT2 receptor (Homo sapiens, UniProt P49286); test: FLIPR Ca2+ mobilization assay, MT2; assay type: cell-based; set-up: expressed in transfected cells; host or cells: COS-7 (monkey kidney fibroblast); conditions: for agonist character / receptor subtype selectivity in words: FLIPR results, MT1 versus MT2; for % Response of 2-IMT: relative to 2-IMT response; for Emax: read-out: % Response of 2-IMT
T1 sequence (P49286 1-362): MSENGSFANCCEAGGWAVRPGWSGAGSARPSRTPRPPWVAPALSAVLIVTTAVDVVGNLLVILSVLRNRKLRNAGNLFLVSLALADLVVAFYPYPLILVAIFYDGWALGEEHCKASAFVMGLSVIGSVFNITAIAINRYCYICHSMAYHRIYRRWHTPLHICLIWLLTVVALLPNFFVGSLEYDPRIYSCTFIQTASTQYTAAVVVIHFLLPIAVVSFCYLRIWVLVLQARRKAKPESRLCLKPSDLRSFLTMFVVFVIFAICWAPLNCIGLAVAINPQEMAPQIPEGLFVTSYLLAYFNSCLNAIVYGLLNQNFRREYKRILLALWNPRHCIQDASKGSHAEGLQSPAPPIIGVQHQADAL
Description: 1. FLIPR Ca^2+ Mobilization Assay
This assay indicates the ability of the novel compounds to activate MT1 and MT2 receptors by measuring downstream events of the activated receptor, in this case intracellular calcium mobilization.
1. Intracellular Ca^2+ Mobilization Assay Using Fluorometric Imaging Plate Reader (FLIPR®)
An intracellular calcium mobilization assay was performed to screen the isoquinolone compounds against the two melatonin receptor subtypes, MT1 and MT2 on the fluorometric imaging plate reader (FLIPR®). In order to facilitate the screening process in a high-throughput manner, chimeric G proteins with the ability to couple to a range of GPCR as well as activate intracellular Ca^2+ were employed. The melatonin receptor subtype (either MT1 or MT2) was co-expressed with the G-protein chimeras in COS-7 (monkey kidney fibroblast) cells. During the assay, cells were exposed to the novel isoquinolone compounds and the corresponding change in fluorescence was measured. Both single point and dose-dependant assays were performed for each isoquinolone compound and based on the latter a dose response curve was generated and the corresponding EC50 for each receptor subtype determined.
Specifically, COS-7 cells were seeded at a density of 20,000 cells/well into 96-well plates designed for FLIPR assays, using Opti-MEM with 10% FCS at a volume of 100 μl/well. Transfection was carried out using Lipofectamine 2000® reagent. In each well, 0.2 μg of the GPCR and G protein cDNA were diluted with 25 μl of Opti-MEM and 0.2 μl of Lipofectamine 2000® was diluted with another 25 μl of Opti-MEM. They were added to appropriate wells after the two components were mixed for 20 min.
After 48 hours of incubation post-transfection, 50 μl of the transfection medium was removed from each well followed by the labelling of transfected cells with 100 μl of 2 μM Fluo-4 in calcium containing HBSS (Hank's balanced salt solution) with 20 mM HEPES (N-[2-hydroxyethyl]piperazine—N′-[2-ethanesulfonic acid]; pH 7.5) and 2.5 mM probenecid (anion exchanger inhibitor, freshly prepared) for 1 hour at 37° C. 70 μl of 3× drugs (isoquinolinone compounds encompassing the invention) were prepared and aliquoted into the corresponding wells in the V-well drug plate. Changes in fluorescence were detected in the FLIPR 96 with an excitation wavelength of 488 nm. The background fluorescence was adjusted to the range of 8,000 to 12,000 units by altering the laser power and exposure time (typically 0.4 W and 0.4 sec, respectively) for the FLIPR setup. 50 μl of each agonist solution was added to the corresponding wells and the fluorescent emission (between 510 and 560 nm) was monitored for 3 min. Results were expressed as change in fluorescent intensity units (FIU). Concentration-response curves were generated by determining the maximal change in FIU of each data set. Numerical analysis of the statistics and EC50 (median effective concentration) values were performed on GraphPad Prism version 3.03.
Then the intracellular Ca^2+ mobilization assays using the Fluorometric Imaging Plate Reader (FLIPR®) were performed as described above.

[4] = molecular target: T1, MT2 receptor; test: Competitive [3H]melatonin binding assay, MT2; set-up: expressed in transfected cells; conditions: displacement of 1 nM [3H]melatonin
Description: as §1, §2, §3

[5] = Table 1, MT2 in COS-7 cells with chimeric G protein, log value, negative, NSR = no significant response
[6] = Table 2, MT2, log value, negative
[7] = unit inferred, read-out: Binding Assay MT2 IC50
[8] = HEK-293 cells, log value, negative, NSB = No significant binding
[9] = Table 1, MT2 in COS-7 cells with chimeric G protein, log value, negative, NSR = no significant response, read-out: Log(EC50) ± SEM (converted)

Structure (SMILES)	MTT Assay Parental 293 % Viability ± SEM [1]	Binding Assay MT1 logIC50 ± SEM [2]	agonist character / receptor subtype selectivity in words [3]	% Response of 2-IMT ([3]; Table 1, MT2)	Log(EC50) ± SEM [3, 5]	% Resp of 2-IMT ([3]; Table 2, MT2)	logEC50 ± SEM [3, 6]	EC50 ([3]; Table 2, MT2, read-out: EC50)	IC50 ([4]; HEK-293 cells, log value, negative, NSB = No significant binding, read-out: Binding Assay MT2 logIC50 ± SEM (converted))	IC50 [4, 7]	activity / efficacy at MT2 compared to 2-IMT [3]	Emax [3]	EC50 ([3]; read-out: EC50 MT2)	Binding Assay MT2 logIC50 ± SEM [4, 8]	EC50 [3, 9]
COc1cccc(COc2cc3ccn(C)c(=O)c3cc2OC)c1 [IS044]	78.6 ± 5.8%	NSB	very potent full agonists with high MT2 selectivity	94.9%	−8.42 ± 0.25	94.9%	−8.42 ± 0.25	3.8 nM							
COc1cccc(COc2c(OC)ccc3c(=O)n(C)ccc23)c1 [IS527]	36.8 ± 0.0%	NSB				65.9%		5.78 nM	117 nM	108 nM	~65%	65.9%	5.78 nM		
COc1cc(COc2cc3ccn(C)c(=O)c3cc2OC)cc(OC)c1 [IS042]	60.7 ± 0.4%	NSB	very potent full agonists with high MT2 selectivity			84.5%		0.379 nM				84.5%		NSB	0.38 nM
COc1ccc2c(=O)n(C)ccc2c1OCc1ccc(C)cc1 [IS529]	35.9 ± 0.4%	NSB	activated MT2 only			53.6%		65.2 nM				53.6%		NSB	64.6 nM
COc1cccc(COc2cc3c(=O)n(C)ccc3cc2OC)c1 [IS521]	66.1 ± 4.9%	NSB	very potent full agonists with high MT2 selectivity			98.9%		11.4 nM		145 nM		98.9%			11.5 nM
Cn1ccc2cc(OC(=O)c3ccccc3)c(OC(=O)c3ccccc3)cc2c1=O [IS039]	104.9 ± 4.8%	NSB		61.0%	−8.64 ± 0.20	61.0%	−8.64 ± 0.20	2.31 nM						NSB	
COc1cc(COc2cc3c(=O)n(C)ccc3cc2OC)cc(OC)c1 [IS523]	37.5 ± 0.9%	NSB	very potent full agonists with high MT2 selectivity			61.0%		45.4 nM				61%		NSB	45.7 nM
COc1cc2ccn(C)c(=O)c2cc1OCc1ccc(C(C)(C)C)cc1 [IS526]	27.5 ± 18.9%	NSB		88.6%	−5.42 ± 0.76	88.6%	−5.42 ± 0.76	3770 nM						NSB	
COc1cc(COc2c(OC)ccc3c(=O)n(C)ccc23)cc(OC)c1 [IS528]	32.2 ± 2.3%	NSB		64.8%	−9.43 ± 0.75	64.8%	−9.43 ± 0.75	0.369 nM			~65%		0.37 nM	NSB	
